Measured values: ChEMBL document CHEMBL1759941, “Discovery of pyrrolo[2,3-d]pyrimidin-4-ones as corticotropin-releasing factor 1 receptor antagonists with a carbonyl-based hydrogen bonding acceptor” (Bioorg Med Chem Lett, 2011)

Experiments:
[1] = target: T1, Corticotropin-releasing factor receptor 1 (Homo sapiens, UniProt P34998); assay: Displacement of ovine [125I]CRF from human CRF1 receptor expressed in CHO cells; assay type: cell-based
T1 sequence (P34998 whole entry): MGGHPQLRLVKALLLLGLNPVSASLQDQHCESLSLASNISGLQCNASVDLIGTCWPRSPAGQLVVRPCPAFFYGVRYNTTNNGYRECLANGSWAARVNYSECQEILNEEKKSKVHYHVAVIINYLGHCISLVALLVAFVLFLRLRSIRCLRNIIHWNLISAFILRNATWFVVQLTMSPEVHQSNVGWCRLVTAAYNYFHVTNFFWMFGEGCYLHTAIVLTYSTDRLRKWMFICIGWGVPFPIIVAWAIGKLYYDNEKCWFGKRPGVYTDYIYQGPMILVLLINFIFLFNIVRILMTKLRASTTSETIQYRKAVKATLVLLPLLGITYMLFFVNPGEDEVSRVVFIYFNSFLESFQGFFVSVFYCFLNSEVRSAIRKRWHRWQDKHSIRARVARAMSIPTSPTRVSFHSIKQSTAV

Mus musculus [2] = assay: Ex vivo displacement of [125I]-sauvagine from CRF1 receptor in mouse frontal cortex at 30 mg/kg, po administered 60 mins before mouse decapitation and measured after 2 hrs by gamma scintillation counting; assay type: functional
Mus musculus [3] = assay: Ex vivo displacement of [125I]-sauvagine from CRF1 receptor in mouse Olfactory bulb at 30 mg/kg, po administered 60 mins before mouse decapitation and measured after 2 hrs by gamma scintillation counting; assay type: functional
Mus musculus [4] = assay: Ex vivo displacement of [125I]-sauvagine from CRF1 receptor in mouse pituitary gland at 30 mg/kg, po administered 60 mins before mouse decapitation and measured after 2 hrs by gamma scintillation counting; assay type: functional
[5] = Ratio of drug uptake in brain to plasma of mouse at 30 mg/kg, po; assay type: ADME, organism-based; design: dose 30 mg/kg, route oral; conditions: read-out: BBB

Row | SMILES | IC50 [1] [µM] | also measured
1 | CCC(CC)Oc1cc(C)nc(Oc2c(C)cc(C)cc2C)c1C | 0.092 | –
2 | CCCCN(CCCC)c1nc2c(c(-c3c(C)cc(C)cc3C)cn2C)c(=O)n1C | 0.97 | –
3 | CCCN(CCC)c1nc2c(c(-c3c(C)cc(C)cc3C)c(C)n2C)c(=O)n1C | 1.1 | –
4 | CCN(CC)c1nc2c(c(-c3c(C)cc(C)cc3C)cn2C)c(=O)n1C | 7.7 | –
5 | CCCN(CCC)c1nc2c(c(-c3c(C)cc(C)cc3C)cn2C)c(=O)n1C | 0.12 | inhibition in vivo at 30 mg/kg (Mus musculus [2]): 35%; inhibition in vivo at 30 mg/kg (Mus musculus [3]): 22%; inhibition in vivo at 30 mg/kg (Mus musculus [4]): 53%; Kp [5]: 0.42
6 | CCCN(CCC)c1nc2c(c(-c3ccc(OC)cc3OC)cn2C)c(=O)n1C | 3 | –
7 | Cc1cc(C)c(-c2cn(C)c3nc(N4CCCCC4)n(C)c(=O)c23)c(C)c1 | 3.8 | –
8 | CCCCN(CC)c1nc(C)nc2c1c(C)cn2-c1c(C)cc(C)cc1C [CP-154526] | 0.011 | –
9 | CCCN(CCC)c1nc2c(c(-c3ccc(C(F)(F)F)cc3C(F)(F)F)cn2C)c(=O)n1C | 3 | –
10 | CCCN(CCC)c1nc2c(c(-c3ccc(C)cc3C)cn2C)c(=O)n1C | 1.6 | –
11 | CCCN(CCC)c1nc2c(c(-c3ccc(C)cc3C)c(C)n2C)c(=O)n1C | 3.3 | –
12 | Cc1cc(C)c(-c2cn(C)c3nc(N(CC4CC4)CC4CC4)n(C)c(=O)c23)c(C)c1 | 0.14 | –
13 | CCCN(CCC)c1nc2c(c(-c3c(OC)cc(OC)cc3OC)cn2C)c(=O)n1C | 3.1 | –
